Experimental data as given in the NIST ThermoML archive (doi:10.1021/je0602824).

Tests used:
[1] = xn = mol fraction of the nth substance listed; conditions: 101 kPa, Liquid, x1 = 1
[2] = 101 kPa, Liquid

O [water] + CCOS(=O)(=O)[O-].CCn1cc[n+](C)c1
[1]
Conditions	mass density [kg/m3]
278.15 K	999.99
308.15 K	994.06
328.15 K	985.71
338.15 K	980.56
348.15 K	974.84

O [water] + CCn1cc[n+](C)c1.O=C([O-])C(F)(F)F
[1]
Conditions	mass density [kg/m3]
278.15 K	999.99
308.15 K	994.06
328.15 K	985.71
338.15 K	980.56
348.15 K	974.84

CCn1cc[n+](C)c1.O=S(=O)([O-])C(F)(F)F [1-ethyl-3-methylimidazolium trifluoromethanesulfonate]
[2]
Conditions	mass density [kg/m3]	viscosity [mPa·s]
278.15 K	1400.52	96
288.15 K	1392.04	61
298.15 K	1383.6	41
308.15 K	1375.22	29
318.15 K	1366.9	21
328.15 K	1358.63	16
338.15 K	1350.43	13
348.15 K	1342.3	11

O [water] + CCn1cc[n+](C)c1.O=S(=O)([O-])C(F)(F)F
[1]
Conditions	mass density [kg/m3]
278.15 K	999.99
308.15 K	994.06
328.15 K	985.71
338.15 K	980.56
348.15 K	974.84

CCn1cc[n+](C)c1.O=C([O-])C(F)(F)F [1-ethyl-3-methylimidazolium trifluoroacetate]
[2]
Conditions	mass density [kg/m3]	viscosity [mPa·s]
278.15 K	1306.89	78
288.15 K	1298.81	48
298.15 K	1290.8	32
308.15 K	1282.85	23
318.15 K	1274.95	17
328.15 K	1267.12	13
338.15 K	1259.35	10
348.15 K	1251.63	9

CCOS(=O)(=O)[O-].CCn1cc[n+](C)c1 [1-ethyl-3-methylimidazolium ethyl sulfate]
[2]
Conditions	mass density [kg/m3]	viscosity [mPa·s]
278.15 K	1251.12	308
288.15 K	1244.13	166
298.15 K	1237.37	95
308.15 K	1230.61	62
318.15 K	1223.9	41
328.15 K	1217.23	30
338.15 K	1210.6	21
348.15 K	1204.01	17
